Results from PubChem BioAssay (NCI).
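Exposure lasted 48 hours, with cells grown in 96-well plates and compounds tested at five concentrations. TGI: total growth inhibition.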

Tests used:
Experiment in all cases: NCI anticancer screen, dose series, 48 h
BT-549 breast = test system: BT-549 breast
DU-145 prostate = test system: DU-145 prostate
HCT-116 colon = test system: HCT-116 colon
HOP-92 NSCLC = test system: HOP-92 NSCLC
HS 578T breast = test system: HS 578T breast
M14 melanoma = test system: M14 melanoma
MDA-MB-435 = test system: MDA-MB-435
MOLT-4 leukemia = test system: MOLT-4 leukemia
NCI-H460 lung = test system: NCI-H460 lung
NCI/ADR-RES ovarian = test system: NCI/ADR-RES ovarian
OVCAR-3 ovarian = test system: OVCAR-3 ovarian
SN12C renal = test system: SN12C renal
SNB-19 CNS = test system: SNB-19 CNS
SNB-75 CNS = test system: SNB-75 CNS
SR leukemia = test system: SR leukemia
SW-620 colon = test system: SW-620 colon
U251 CNS = test system: U251 CNS
UO-31 renal = test system: UO-31 renal

Measured: TGI

CC(C(=O)N1c2ccccc2Sc2ccccc21)N1c2ccccc2Sc2ccccc21 (stereo not given)
> 100 µM: BT-549 breast | DU-145 prostate | HCT-116 colon | HOP-92 NSCLC | HS 578T breast | M14 melanoma | MDA-MB-435 | MOLT-4 leukemia | NCI-H460 lung | NCI/ADR-RES ovarian | OVCAR-3 ovarian | SN12C renal | SNB-19 CNS | SNB-75 CNS | SR leukemia | SW-620 colon | U251 CNS | UO-31 renal

COC1(OC)C2(Cl)CCC1(Cl)C(OC(C)=O)C2 (stereo not given)
> 100 µM: BT-549 breast | DU-145 prostate | HCT-116 colon | HOP-92 NSCLC | HS 578T breast | M14 melanoma | MDA-MB-435 | MOLT-4 leukemia | NCI-H460 lung | NCI/ADR-RES ovarian | OVCAR-3 ovarian | SN12C renal | SNB-19 CNS | SNB-75 CNS | SR leukemia | SW-620 colon | U251 CNS | UO-31 renal

Oc1cc(O)c2c(c1)O[C@H](c1cc(O)c(O)c(O)c1)[C@H](O)C2
> 100 µM: DU-145 prostate | HOP-92 NSCLC | HS 578T breast | M14 melanoma | OVCAR-3 ovarian | SNB-19 CNS
40.3 µM: HCT-116 colon
39.4 µM: UO-31 renal
63.8 µM: NCI/ADR-RES ovarian
56.6 µM: BT-549 breast
25.4 µM: MDA-MB-435
30.4 µM: U251 CNS
37 µM: SN12C renal
27.6 µM: SR leukemia
32.9 µM: MOLT-4 leukemia | SW-620 colon
98 µM: SNB-75 CNS
38.5 µM: NCI-H460 lung

Cc1nc(N)c(N2CCNCC2)c(=O)[nH]1
> 100 µM: BT-549 breast | DU-145 prostate | HCT-116 colon | HOP-92 NSCLC | HS 578T breast | M14 melanoma | MDA-MB-435 | MOLT-4 leukemia | NCI-H460 lung | NCI/ADR-RES ovarian | OVCAR-3 ovarian | SN12C renal | SNB-19 CNS | SNB-75 CNS | SR leukemia | SW-620 colon | U251 CNS | UO-31 renal

CC/C(=N/O)c1ccc(Br)s1
> 100 µM: BT-549 breast | DU-145 prostate | HCT-116 colon | HOP-92 NSCLC | HS 578T breast | M14 melanoma | MDA-MB-435 | MOLT-4 leukemia | NCI-H460 lung | NCI/ADR-RES ovarian | OVCAR-3 ovarian | SN12C renal | SNB-19 CNS | SNB-75 CNS | SR leukemia | SW-620 colon | U251 CNS | UO-31 renal

COc1ccccc1N1C(=O)/C(=C\c2cccc(Oc3ccccc3)c2)SC1c1ccccc1 (stereo not given)
71 µM: SW-620 colon
> 100 µM: BT-549 breast | DU-145 prostate | HCT-116 colon | HOP-92 NSCLC | HS 578T breast | M14 melanoma | MDA-MB-435 | MOLT-4 leukemia | NCI-H460 lung | NCI/ADR-RES ovarian | OVCAR-3 ovarian | SN12C renal | SNB-19 CNS | SNB-75 CNS | SR leukemia | U251 CNS | UO-31 renal

C=CCN1C(=O)/C(=C/c2ccccc2)NC1=S
> 100 µM: BT-549 breast | DU-145 prostate | HCT-116 colon | HOP-92 NSCLC | HS 578T breast | M14 melanoma | MDA-MB-435 | MOLT-4 leukemia | NCI-H460 lung | NCI/ADR-RES ovarian | OVCAR-3 ovarian | SN12C renal | SNB-19 CNS | SNB-75 CNS | SR leukemia | SW-620 colon | U251 CNS | UO-31 renal

CC(C)NC(=O)OCc1c(COC(=O)NC(C)C)c(-c2ccc[n+](COC(=O)CC(C)(C)C)c2)n2c1CCC2
> 100 µM: BT-549 breast | DU-145 prostate | HCT-116 colon | HOP-92 NSCLC | HS 578T breast | M14 melanoma | MDA-MB-435 | MOLT-4 leukemia | NCI-H460 lung | NCI/ADR-RES ovarian | OVCAR-3 ovarian | SN12C renal | SNB-19 CNS | SNB-75 CNS | SR leukemia | SW-620 colon | U251 CNS | UO-31 renal

C=C(C)[C@@H](C(=O)OC)N1C(=O)c2ccccc2C1=O
> 100 µM: BT-549 breast | DU-145 prostate | HCT-116 colon | HOP-92 NSCLC | HS 578T breast | M14 melanoma | MDA-MB-435 | MOLT-4 leukemia | NCI-H460 lung | NCI/ADR-RES ovarian | OVCAR-3 ovarian | SN12C renal | SNB-19 CNS | SNB-75 CNS | SR leukemia | SW-620 colon | U251 CNS | UO-31 renal

N#Cc1nc(COCCOCc2ccccc2)oc1N
> 100 µM: BT-549 breast | DU-145 prostate | HCT-116 colon | HOP-92 NSCLC | HS 578T breast | M14 melanoma | MDA-MB-435 | MOLT-4 leukemia | NCI-H460 lung | NCI/ADR-RES ovarian | OVCAR-3 ovarian | SN12C renal | SNB-19 CNS | SNB-75 CNS | SR leukemia | SW-620 colon | U251 CNS | UO-31 renal
